The values that follow come from US20220213070A1, “COMPOUNDS INHIBITING TDG ACTIVITY” (EPITAS BIOSCIENCES (SHANGHAI) CO., LTD., priority 2019, published 2022).

For assay [1], the target named is T1, TDG (Homo sapiens, UniProt Q13569). The assay can be described thus: TDG inhibitory activity of compounds in cells (caC-cmv-firefly luciferase reporter, HEK 293T TDG KO cells transfected with pCDNA4-TDG). Type of assay: cell-based. The following applies: read-out: Inhibition rate on TDG activity. How it is done: Experimental Determination of TDG Inhibitory Activity of Compounds in Cells
The operation steps of this example are as follows:
(1) Preparation of Methylation Reporter Plasmid:
(a) SAM with a stock solution concentration of 32 mM was diluted with ultrapure water to 1600 μM;
(b) The reaction system was prepared according to the following ratio: 30 μl ultrapure water, 5 μl 10×NEBuffer 2, 5 μl diluted SAM, 1 μg pCpGL-CMV-firefly plasmid, 1 μl SssI methylase (4 U/μl); 50 μl in total, the reaction was carried out at 37° C. for 2 hours;
(c) The mixture was heated at 65° C. for 20 minutes. Then 0.2% SDS was added, the reaction was carried out at 80° C. for 10 min; and then 1 μl Proteinase K was added, the reaction was carried out at 50° C. for 1 h;
(d) The methylated plasmid was recovered with Dr. GenTLE® sedimentation aid (TAKARA).
(2) Preparation of 5fC/5caC pCpGL-CMV-Firefly Reporter Plasmid
(a) The following 10× reaction system was prepared:
(b) The reaction system was prepared according to the following ratio:
(c) The reaction was carried out at 37° C. for one hour;
(d) 24 μg Tet1 protein was added for the second time and the reaction was continued for one hour;
(e) SDS was added to a final concentration of 0.5%, 80° C., 10 minutes, then 1 μl Proteinase K was added, 55° C. overnight.
(f) The treated caC-cmv-firefly plasmid was recovered with Dr. GenTLE® sedimentation aid (TAKARA) and was quantified.
(3) Using the Luciferase Activity Assay Method to Detect the Inhibitory Rate of Small Molecule Compounds on Intracellular TDG Enzyme Activity
In a 96-well plate, the reaction system and operation flow of each well were as follows:
(a) 1 ng caC-cmv-firefly, Ing pCpGL-CMV-Relina and 150 ng pCDNA4-TDG or 150 ng pCDNA4-myc plasmid, were diluted to 75 ul Opti-MEM, mixed well and allowed to stand still for 5 minutes;
(b) 2 ul transfection reagent (Hieff Trans™ Liposomal transfection Reagent (0.5 ul/well, YEAEEN, Cat #40802)) was diluted in 100 ul Opti-MEM, mixed well and allowed to stand still for 5 minutes;
(c) 75 ul of (a) and (b) were mixed respectively, and allowed to stand still at room temperature for 20 minutes;
(d) HEK 293T TDG KO cells were digested with trypsin, the cells were collected and counted, and the suspension cell concentration was adjusted to 4×10^5/ml;
(e) 50 ul of the mixture (c) was added to each well, and at the same time 100 ul of the diluted cell suspension was added to the same well, and they were mixed well.
(f) After the cells adhering to the wall, different concentrations of small molecule compounds to be tested were added to each well.
(g) Incubation was performed in a 37° C. CO2 incubator for 72 hours. The supernatant was removed and the cells were quickly freezed at −80° C.
(h) Before detecting the luciferase activity, the cells to be tested were removed from −80° C. and allowed to stand still at room temperature for 30 minutes. Following the instructions of Dual-Glo® Luciferase Reagent (PROMEGA), the firefly fluorescence value and Renilla fluorescence value of each well were detected.
(i) The firefly fluorescence value was divided with the Renilla fluorescence value of each well; 96-well plate Z′ and experimental window was calculated by the ratio of transfected caC-cmv-firefly, pCpGL-CMV-Relina, pCDNA4-TDG plasmid mixture plus DMSO experimental group to transfected caC-cmv-firefly, pCpGL-CMV-Relina, pCDNA4-myc plasmid mixture plus DMSO experimental group, and the relative enzyme activity inhibition rate of each compound was calculated.
According to the biological method described in this example, the selected compounds of the present invention were analyzed, and the results are shown in Table 2. Among them, “+” in Table 2 refers to the compound's TDG inhibitory activity at a concentration of 10 μM≤25%; “++” refers to the compound's TDG inhibitory activity at a concentration of 10 μM>25%.

Assay [2] concerns Lung cancer cell line Calu-1. Briefly: Inhibition of the growth of Calu-1 cells (CellTiter-Glo, 72 hours). Format: cell-based. The following applies: Homo sapiens, 72 hours of culturing, read-out: Inhibitory activity on alu-1 cell growth IC50. How it is done: 14.2 Experimental Determination of Compound's Inhibitory Rate on the Growth of Calu-1 Cells
Lung cancer cell line Calu-1 was cultured in 90% McCoy's 5A medium (BI, 01-075-1ACS)+10% fetal bovine serum (Gibco, 10270106), placed in a CO2 incubator (37° C., 5% CO2, 95% air) for culturing. Calu-1 cells were digested with trypsin (Gibco, 12604-021) and seeded in a 384-well plate at a density of 500 cells per well. The medium was 50 μL and it was cultured overnight at 37° C. in an incubator. On the next day, different concentrations of test compounds were added, and the final concentration of DMSO was 0.1%. After 72 hours of culturing, the cells were taken out for test. The cell culture medium from the 384-well plate to be tested was removed, and fresh culture medium premixed with CTG was immediately added: the ratio of the culture medium to CellTiter-Glo® 2.0 reagent (Promega, G9243) was 2:1, 30 ul was added to each well. The plate was shaken at room temperature for 20 minutes, and then a multi-function plate reader (TECAN, Infinite 200 Pro) was used according to the reagent instructions to determine the cell survival.
According to the biological method described in this example, the selected compounds of the present invention were analyzed, and the results are shown in Table 1. Among them, “++” in Table 1 refers to the inhibitory activity on the growth of calu-1 cells with IC50≤5 μM; “+” refers to the inhibitory activity on the growth of calu-1 cells with IC50>5 μM.

In assay [3] the target is T1, TDG. Briefly: Inhibition of TDG mismatch repair activity (fluorescent G·U double-stranded DNA probe T1-T2). Format: biochemical. To be noted: TDG 100 nM/L, preincubated with compound 37° C. 30 minutes; probe 30 nM; read-out: Inhibitory activity on TDG mismatch repair IC50. From the text:
14.1 Experimental Determination of Compound's Inhibitory Rate on TDG Mismatch Repair Activity
(1) A double-stranded DNA probe T1-T2 containing uracil bases was synthesized. The nucleotide sequence of the T1 chain was: 5′-FAM-TAAUGTGAATGGAGCTGAAAT-biotin-3′; The nucleotide sequence of the T2 chain was 5′-ATTTCAGCTCCATTCACGTTA-3′. Using PCR annealing program, the T1 strand and T2 strand were complementary to form a double-stranded DNA probe T1-T2.
(2) The reaction system and steps for each well of a 96-well plate were as follows: a. TDG (100 nM/L) was mixed with different concentrations of compounds, and the mixture was incubated at 37° C. for 30 minutes. The composition of the reaction buffer was: 20 mM HEPES pH7.5, 100 mM NaCl, 0.2 mM EDTA, 2.5 mM MgCl2; b. The double-stranded DNA probe T1-T2 was added to the mixture to obtain a final volume of 100 μL, with a concentration of 30 nM, and the mixture was incubated at 25° C. for 30 min; c. 1 μL of streptavidin magnetic beads were added to the reaction solution and fully bound the biotin-labeled DNA for 1 hour; d. NaOH was added to the reaction solution to a final concentration of 200 mM, and the mixture was incubated at room temperature for 30 minutes; e. Under the action of a magnetic stand the streptavidin magnetic beads were adsorbed to the tube wall, the supernatant was transferred to a new 96-well plate, and placed in a Tecan microplate reader for fluorescence measurement. The parameter settings were: excitation wavelength 485 nm; emission wavelength 520 nm. A linear curve between fluorescence intensity and TDG concentration was constructed, R^2=0.9968, and the linear range was 0-50 nM/L;
According to the biological method described in this example, the selected compounds of the present invention were analyzed, and the results are shown in Table 1. Among them, “++” in Table 1 refers to the inhibitory activity for TDG mismatch repair with IC50≤5 μM; “+” refers to the inhibitory activity for TDG mismatch repair with IC50>5 μM.

T1 sequence (Q13569 whole entry): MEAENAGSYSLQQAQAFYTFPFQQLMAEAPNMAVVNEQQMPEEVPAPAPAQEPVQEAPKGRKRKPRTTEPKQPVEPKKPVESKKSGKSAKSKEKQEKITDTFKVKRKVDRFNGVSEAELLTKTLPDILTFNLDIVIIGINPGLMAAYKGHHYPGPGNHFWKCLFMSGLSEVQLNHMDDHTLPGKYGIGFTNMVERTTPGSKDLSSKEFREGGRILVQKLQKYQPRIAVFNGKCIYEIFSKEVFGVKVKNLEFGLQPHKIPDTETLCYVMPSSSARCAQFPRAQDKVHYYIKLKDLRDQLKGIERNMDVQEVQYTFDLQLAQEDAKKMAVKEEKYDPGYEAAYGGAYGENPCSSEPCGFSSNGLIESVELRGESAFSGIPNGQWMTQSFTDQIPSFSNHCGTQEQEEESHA

Take `O=C(CCN1Cc2ccc(-c3ccc(F)cc3)cc2C1)c1ccc2c(c1)OCCO2` [Compound 40, 1-(2,3-dihydrobenzo[b][1,4]dioxin-6-yl)-3-(5-(4-fluorophenyl)isoindolin-2-yl)propan-1-one]: in assay [1], the inhibition at 10 µM was less than 25%. Also, the IC50 in assay [2] and in assay [3] was greater than 5 µM throughout.
Turning to `O=C(CCN1CCC(c2ccc(Cl)cc2)C1)c1ccc2c(c1)OCCO2` (stereo not drawn) [Compound 49, 3-(3-(4-chlorophenyl)pyrrolidin-1-yl)-1-(2,3-dihydrobenzo[b][1,4]dioxin-6-yl)propan-1-one], the inhibition at 10 µM in assay [1] was less than 25%. Besides, the 50% inhibitory concentration (IC50) in assay [2] and in assay [3] was no more than 5 µM each time.
In the case of `O=C(CCN1Cc2ccc([N+](=O)[O-])cc2C1)c1ccc2c(c1)OCCO2` [Compound 2, 1-(2,3-dihydrobenzo[b][1,4]dioxin-6-yl)-3-(5-nitroisoindo1-2-yl)propan-1-one], in assay [1], the inhibition at 10 µM is less than 25%. For the same molecule, the IC50 in assay [2] and in assay [3] was no more than 5 µM throughout.
As for `O=C(CCN1Cc2ccccc2C1)c1ccc2c(c1)OCO2` [Compound 35, 1-(benzo[d][1,3]dioxo1-5-yl)-3-(isoindolin-2-yl)propan-1-one], in assay [1], the inhibition at 10 µM is less than 25%. In addition, the IC50 in assay [2] and in assay [3] was no more than 5 µM each time.
With `O=C(CCN1C(=O)CSC1=S)c1ccc2c(c1)OCCO2` [Compound 22, 3-(3-(2,3-dihydrobenzo[b][1,4]dioxin-6-yl)-3-oxopropyl)-2-thiothiazolidine-4-one], the inhibition at 10 µM in assay [1] was less than 25%. Also, the concentration for half-maximal inhibition (IC50) in assay [2] and in assay [3] was greater than 5 µM in each case.
On to `O=C(CCn1cc(-c2ccccc2)cn1)c1ccc2c(c1)OCCO2` [Compound 28, 1-(2,3-dihydrobenzo[b][1,4]dioxin-6-yl)-3-(4-phenyl-1H-pyrazol-1-yl)propan-1-one], for which, in assay [1], the inhibition at 10 µM is less than 25%. Further, the IC50 in assay [2] and in assay [3] was greater than 5 µM each time.
With `O=C(CCN1CCc2ccccc2C1)c1ccc2c(c1)OCCO2` [Compound 13, 1-(2,3-dihydrobenzo[b][1,4]dioxin-6-yl)-3-(3,4-dihydroisoquinoline-2(1H)-yl)propan-1-one], the inhibition at 10 µM in assay [1] was less than 25%. Further, the IC50 in assay [2] and in assay [3] was no more than 5 µM in each case.
`O=C(CCNC1=NCc2ccccc21)c1ccc2c(c1)OCCO2` [Compound 26, 3-((1H-isoindo1-3-yl)amino)-1-(2,3-dihydrobenzo[b][1,4]dioxin-6-yl)propan-1-one]: the inhibition at 10 µM in assay [1] was less than 25%. The IC50 in assay [2] and in assay [3] was greater than 5 µM throughout.
As for `O=C(CCN1CCCC1)c1ccc2c(c1)OCCO2` [Compound 16, 1-(2,3-dihydrobenzo[b][1,4]dioxin-6-yl)-3-(pyrrolidin-1-yl)propan-1-one], the inhibition at 10 µM in assay [1] is less than 25%. Besides, the IC50 was greater than 5 µM in assay [2] and no more than 5 µM in assay [3].
For `c1ccc2c(c1)CN(CCCc1ccc3c(c1)OCCO3)C2` [Compound 29, 2-(3-(2,3-dihydrobenzo[b][1,4]dioxin-6-yl)propyl)isoindoline], in assay [1], the inhibition at 10 µM was greater than 25%. Also, the IC50 in assay [2] and in assay [3] was greater than 5 µM throughout.
Consider `C=CC(=O)c1ccc2c(c1)OCCO2` [Compound 42, 1-(2,3-dihydrobenzo[b][1,4]dioxin-6-yl)prop-2-en-1-one], for which the inhibition at 10 µM in assay [1] was less than 25%. Further, the half-inhibitory concentration (IC50) in assay [2] and in assay [3] was no more than 5 µM each time.
For the molecule `O=C(CCN1Cc2ccc(F)cc2C1)c1ccc2c(c1)OCCO2` [Compound 6, 1-(2,3-dihydrobenzo[b][1,4]dioxin-6-yl)-3-(5-fluoroiso-2-yl)propan-1-one], the inhibition at 10 µM in assay [1] was less than 25%. Besides, the IC50 in assay [2] was greater than 5 µM; in assay [3], no more than 5 µM.
The corresponding values for `O=C(c1ccc2c(c1)OCCO2)N1Cc2ccccc2C1` [Compound 33, (2,3-dihydrobenzo[b][1,4]dioxin-6-yl)(isoindolin-2-yl)methanone] are less than 25%, greater than 5 µM and greater than 5 µM.
The like results for `O=C(CCn1ccc(-c2ccc(F)cc2)cc1=O)c1ccc2c(c1)OCCO2` [Compound 18, 1-(3-(2,3-dihydrobenzo[b][1,4]dioxin-6-yl)-3-oxopropyl)-4-(4-fluorophenyl)pyridine-2(1H)-one] were, in that order, greater than 25%, greater than 5 µM and no more than 5 µM.
The like results for `COc1ccc2cn(CCC(=O)c3ccc4c(c3)OCCO4)nc2c1` [Compound 24, 1-(2,3-dihydrobenzo[b][1,4]dioxin-6-yl)-3-(6-methoxy-2H-indazol-2-yl)propan-1-one] were, in that order, less than 25%, greater than 5 µM and greater than 5 µM.
